The text below walks through data of ChEMBL document CHEMBL1764989, “Local structural changes, global data views: graphical substructure-activity relationship trailing” (J Med Chem, 2011).

The pKi is −log10 of the Ki, conventionally taken in molar units. The low end stands for a large Ki, the high end for a small Ki.

The assay concerns the target Coagulation factor X (Homo sapiens, UniProt P00742). The assay can be described thus: Inhibition of human factor 10a.

pKi: −log10 of the molar value.

Sequence of Coagulation factor X (P00742 41-179 limits assumed): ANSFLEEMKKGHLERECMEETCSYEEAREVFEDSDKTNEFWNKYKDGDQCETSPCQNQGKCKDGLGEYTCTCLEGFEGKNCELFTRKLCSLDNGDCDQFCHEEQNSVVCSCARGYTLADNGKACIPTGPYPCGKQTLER
Sequence of Coagulation factor X (P00742 235-488 limits assumed): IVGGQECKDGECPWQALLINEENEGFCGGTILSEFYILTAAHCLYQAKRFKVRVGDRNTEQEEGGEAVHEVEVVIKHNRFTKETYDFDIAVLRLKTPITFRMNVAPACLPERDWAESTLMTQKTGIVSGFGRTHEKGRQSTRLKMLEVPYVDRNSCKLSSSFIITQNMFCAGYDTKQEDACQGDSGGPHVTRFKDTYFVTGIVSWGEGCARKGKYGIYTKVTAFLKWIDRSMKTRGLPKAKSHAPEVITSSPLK

In the case of `COc1ccc(-n2nc(C(F)(F)F)c3c2C(=O)N(c2ccc(-c4ccccc4S(C)(=O)=O)cc2)CC3)cc1`, the pKi is 9.70.

As for `COc1ccc(-n2nc(C(F)(F)F)c3c2C(=O)N(c2ccc(N(C)C)cc2)CC3)cc1`, the pKi is 8.20.

Take `COc1ccc(-n2nc(C(F)(F)F)c3c2C(=O)N(c2ccc(-c4ccccc4CN4CCC(O)C4)cc2)CC3)cc1` (stereo not given): the pKi was 9.30.

Consider `COc1ccc2ccc(S(=O)(=O)NC3CCN(Cc4cc(C(=N)N)ccc4N)C3=O)cc2c1` (stereo not given), for which the pKi was 8.20.

`COc1ccc2ccc(S(=O)(=O)NC3CCN(Cc4ccc(O)c(C(=N)N)c4)C3=O)cc2c1` (stereo not given) showed a pKi of 6.00.

As to `COc1ccc2ccc(S(=O)(=O)NC3CCN(Cc4cc(C(=N)N)ccc4OCC(=O)O)C3=O)cc2c1` (stereo not given), the pKi was 5.90.

`COc1ccc2ccc(S(=O)(=O)NC3CCN(Cc4cc(N)cc(C(=N)N)c4)C3=O)cc2c1` (stereo not given): the pKi is 5.90.

Regarding `COc1ccc2ccc(S(=O)(=O)NC3CCN(Cc4cc(C(=N)N)ccc4O)C3=O)cc2c1` (stereo not given), the pKi is 8.50.

The compound `COc1ccc(-n2nc(C(F)(F)F)c3c2C(=O)N(c2ccc(NC(C)=O)cc2)CC3)cc1` had a pKi of 6.70.

`COC(=O)COc1ccc(C(=N)N)cc1CN1CCC(NS(=O)(=O)c2ccc3ccc(OC)cc3c2)C1=O` (stereo not given): the pKi was 8.10.
